Literature values in patent US8809627B2, “Plant isoflavone and isoflavanone O-methyltransferase genes” (The Samuel Roberts Noble Foundation, Inc., priority 2006, dated 2014).

Molecular target: T1, MsI7OMT (Medicago sativa, UniProt O24529)
T1 sequence (O24529 1-352): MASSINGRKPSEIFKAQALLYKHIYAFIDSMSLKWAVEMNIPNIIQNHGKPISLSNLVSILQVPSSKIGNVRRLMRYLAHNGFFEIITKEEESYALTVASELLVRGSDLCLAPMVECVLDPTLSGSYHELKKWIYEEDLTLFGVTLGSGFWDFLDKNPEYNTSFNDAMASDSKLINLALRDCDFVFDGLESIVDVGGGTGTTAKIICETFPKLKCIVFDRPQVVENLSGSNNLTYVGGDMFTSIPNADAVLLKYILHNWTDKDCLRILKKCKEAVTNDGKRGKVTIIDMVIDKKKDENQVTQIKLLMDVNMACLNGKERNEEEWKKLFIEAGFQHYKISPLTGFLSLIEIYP
Details: reported by He et al., 1998; cited from earlier work

In the case of `O=c1c(-c2ccc(O)cc2)coc2cc(O)c(O)cc12` [6,7,4′-trihydroxyisoflavone], the “Activity of MsI7OMT relative to the activity with daidzein” value is listed as 136 % of the activity with daidzein.
